Like-named read-outs stand apart in the source and are kept apart here. Where a SMILES comes first, the peptide text is derived from it.
Experiments:
[1] = biological target: T1, human TPO-R (transfected Ba/F3 cells) (Homo sapiens, UniProt P40238); assay: Thrombopoietin dependent cell proliferation assay (MTT), TPO-R transfected Ba/F3 cells; format: cell-based
T1 construct: Murine IL-3 dependent Ba/F3 cells were transfected with full length human TPO-R; expressed in transfected cells; host or cells: murine Ba/F3 cells
T1 sequence (P40238 26-635): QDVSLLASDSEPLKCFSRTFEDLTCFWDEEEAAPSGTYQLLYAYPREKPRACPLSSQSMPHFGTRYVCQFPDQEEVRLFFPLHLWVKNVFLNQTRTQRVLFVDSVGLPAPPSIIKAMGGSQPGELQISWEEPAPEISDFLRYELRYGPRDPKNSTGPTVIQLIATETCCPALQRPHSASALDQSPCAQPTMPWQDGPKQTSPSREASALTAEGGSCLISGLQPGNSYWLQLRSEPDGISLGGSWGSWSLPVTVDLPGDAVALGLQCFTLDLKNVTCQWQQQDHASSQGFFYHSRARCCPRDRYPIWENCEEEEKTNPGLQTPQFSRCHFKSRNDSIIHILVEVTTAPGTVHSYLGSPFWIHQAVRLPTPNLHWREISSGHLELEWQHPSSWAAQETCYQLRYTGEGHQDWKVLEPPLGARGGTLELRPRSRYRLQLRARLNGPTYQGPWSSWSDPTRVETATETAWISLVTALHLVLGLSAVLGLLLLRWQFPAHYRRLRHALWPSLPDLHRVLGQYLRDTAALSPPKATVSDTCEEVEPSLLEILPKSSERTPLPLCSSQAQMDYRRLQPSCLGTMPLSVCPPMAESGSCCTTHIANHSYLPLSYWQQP
Protocol: Bioactivity of the peptides can be measured using a thrombopoietin dependent cell proliferation assay. Murine IL-3 dependent Ba/F3 cells were transfected with full length human TPO-R. In the absence of IL-3 (WEHI-3 conditioned media), these cells are dependent on TPO for proliferation.
The cells were grown in complete RPMI-10 media, containing 10% WEHI-3 conditioned media, then washed twice in PBS, resuspended in media which lacked WEHI-3 conditioned media, and added to wells containing dilutions of peptide or TPO at 2×10^4 cells/well. The cells were incubated for 48 hours at 37° C. in a humidified 5% CO2 atmosphere and metabolic activity was assayed by the reduction of MTT to formazan, with absorbance at 570 nm measured on an ELISA plate reader.

TPO receptor = biological target: T2, TPO receptor (Homo sapiens, UniProt P40238); assay: Microphysiometer assay: rate of acidification of extracellular medium on TPO receptor stimulation; format: cell-based
T2 sequence (P40238 26-635): T1 sequence (P40238 26-635)
Protocol: In this example cyclized compounds were subjected to three assays. […] Finally, a microphysiometer (Molecular Devices Corp.) assay was performed. […] The ranges for EC50 are symbolically indicated as for IC50 described above.

[2] = Table 4, cyclized compounds, read-out: EC50 (nM) Proliferation
[3] = Table 4, cyclized compounds, microphysiometer, read-out: EC50 (nM) Microonys

SMILES	EC50 [1, 2] [nM]	EC50 (TPO receptor; [3]) [nM]	other results
CCCC1SC[C@@H](C(N)=O)NC(=O)[C@H](Cc2ccccc2)NC(=O)[C@H](CO)NC(=O)[C@H]([C@@H](C)CC)NC(=O)[C@H](Cc2c[nH]c3ccccc23)NC(=O)[C@H](CCC(=O)O)NC(=O)[C@H](CCCNC(=N)N)NC(=O)[C@H](CC(C)C)NC(=O)[C@H]([C@@H](C)O)NC(=O)[C@@H]2CCCN2C(=O)CNC(=O)[C@H](CC(=O)O)NC(=O)[C@H](C)NC1=O (stereo partly drawn) (HELM PEPTIDE1{A.D.G.P.T.L.R.E.W.I.S.F.C.[am]}|CHEM1{[CCCC(C(=O)[*:1])[*:2]]}$PEPTIDE1,CHEM1,1:R1-1:R1|PEPTIDE1,CHEM1,13:R3-1:R2$$$V2.0)	< 500	< 200000	–
CC[C@H](C)[C@@H]1NC(=O)[C@H](Cc2c[nH]c3ccccc23)NC(=O)[C@H](CCC(=O)O)NC(=O)[C@H](CCCNC(=N)N)NC(=O)[C@H](CC(C)C)NC(=O)[C@H]([C@@H](C)O)NC(=O)[C@@H]2CCCN2C(=O)CNC(=O)[C@H](CC(=O)O)NC(=O)[C@H](C)NC(=O)[C@@H](N)CCCCNC(=O)CC[C@@H](C(N)=O)NC(=O)[C@H](Cc2ccccc2)NC(=O)[C@H](CO)NC1=O (HELM PEPTIDE1{K.A.D.G.P.T.L.R.E.W.I.S.F.E.[am]}$PEPTIDE1,PEPTIDE1,1:R3-14:R3$$$V2.0)	< 200000	< 200000	–
CC(C)C[C@H](NC(=O)[C@H](Cc1c[nH]c2ccccc12)NC(=O)[C@H](CCC(N)=O)NC(=O)[C@H](CCCNC(=N)N)NC(=O)[C@H](CC(C)C)NC(=O)[C@@H](NC(=O)[C@@H]1CCCN1C(=O)CNC(=O)[C@H](CSSC[C@H](NC(=O)[C@H](CCC(N)=O)NC(=O)[C@@H](NC(=O)[C@@H](N)CO)C(C)C)C(=O)NCC(=O)N1CCC[C@H]1C(=O)N[C@H](C(=O)N[C@@H](CC(C)C)C(=O)N[C@@H](CCCNC(=N)N)C(=O)N[C@@H](CCC(N)=O)C(=O)N[C@@H](Cc1c[nH]c2ccccc12)C(=O)N[C@@H](CC(C)C)C(=O)N[C@@H](C)C(=O)N[C@@H](C)C(=O)N[C@@H](CCCNC(=N)N)C(=O)N[C@@H](CC(N)=O)C(=O)N[C@@H](Cc1c[nH]cn1)C(=O)N[C@@H](CC(C)C)C(=O)N[C@@H](CO)C(N)=O)[C@@H](C)O)NC(=O)[C@H](CCC(N)=O)NC(=O)[C@@H](NC(=O)[C@@H](N)CO)C(C)C)[C@@H](C)O)C(=O)N[C@@H](C)C(=O)N[C@@H](C)C(=O)N[C@@H](CCCNC(=N)N)C(=O)N[C@@H](CC(N)=O)C(=O)N[C@@H](Cc1c[nH]cn1)C(=O)N[C@@H](CC(C)C)C(=O)N[C@@H](CO)C(N)=O (HELM PEPTIDE1{S.V.Q.C.G.P.T.L.R.Q.W.L.A.A.R.N.H.L.S.[am]}|PEPTIDE2{S.V.Q.C.G.P.T.L.R.Q.W.L.A.A.R.N.H.L.S.[am]}$PEPTIDE1,PEPTIDE2,4:R3-4:R3$$$V2.0; bridges inferred)	–	–	EC50 ([1]; Table 7, dimer compounds, read-out: EC50 (nM) Prolif.): < 500 nM; EC50 (TPO receptor; Table 7, dimer compounds, read-out: EC50 (nM) Microonys.): < 500 nM
CC[C@H](C)[C@@H]1NC(=O)[C@H](Cc2c[nH]c3ccccc23)NC(=O)[C@H](CCC(=O)O)NC(=O)[C@H](CCCNC(=N)N)NC(=O)[C@H](CC(C)C)NC(=O)[C@H]([C@@H](C)O)NC(=O)[C@@H]2CCCN2C(=O)CNC(=O)[C@H](CC(=O)O)NC(=O)[C@H](C)NC(=O)[C@@H](N)CCSSC[C@@H](C(N)=O)NC(=O)[C@H](Cc2ccccc2)NC(=O)[C@H](CO)NC1=O (HELM PEPTIDE1{[N[C@@H](CCS[*:3])C(=O)[*:2]].A.D.G.P.T.L.R.E.W.I.S.F.C.[am]}$PEPTIDE1,PEPTIDE1,1:R3-14:R3$$$V2.0)	< 500	< 500	–
CC[C@H](C)[C@@H]1NC(=O)[C@H](Cc2c[nH]c3ccccc23)NC(=O)[C@H](CCC(=O)O)NC(=O)[C@H](CCCNC(=N)N)NC(=O)[C@H](CC(C)C)NC(=O)[C@H]([C@@H](C)O)NC(=O)[C@@H]2CCCN2C(=O)CNC(=O)[C@H](CC(=O)O)NC(=O)[C@H](C)NC(=O)[C@@H](N)C(C)(C)SSC(C)(C)[C@@H](C(N)=O)NC(=O)[C@H](Cc2ccccc2)NC(=O)[C@H](CO)NC1=O (HELM PEPTIDE1{[Pen].A.D.G.P.T.L.R.E.W.I.S.F.[Pen].[am]}$PEPTIDE1,PEPTIDE1,1:R3-14:R3$$$V2.0)	< 200000	< 200000	–
CC[C@H](C)[C@@H]1NC(=O)[C@H](Cc2c[nH]c3ccccc23)NC(=O)[C@H](CCC(=O)O)NC(=O)[C@H](CCCNC(=N)N)NC(=O)[C@H](CC(C)C)NC(=O)[C@H]([C@@H](C)O)NC(=O)[C@@H]2CCCN2C(=O)CNC(=O)[C@H](CC(=O)O)NC(=O)[C@H](C)NC(=O)[C@H](N)CSSC[C@H](C(N)=O)NC(=O)[C@H](Cc2ccccc2)NC(=O)[C@H](CO)NC1=O (HELM PEPTIDE1{[dC].A.D.G.P.T.L.R.E.W.I.S.F.[dC].[am]}$PEPTIDE1,PEPTIDE1,1:R3-14:R3$$$V2.0)	< 200000	< 200000	–
CC[C@H](C)[C@@H]1NC(=O)[C@H](Cc2c[nH]c3ccccc23)NC(=O)[C@H](CCC(=O)O)NC(=O)[C@H](CCCNC(=N)N)NC(=O)[C@H](CC(C)C)NC(=O)[C@H]([C@@H](C)O)NC(=O)[C@@H]2CCCN2C(=O)CNC(=O)[C@H](CC(=O)O)NC(=O)[C@H](C)NC(=O)CSC[C@@H](C(=O)O)NC(=O)[C@H](Cc2ccccc2)NC(=O)[C@H](CO)NC1=O [free acid form] (HELM PEPTIDE1{[O=C(C[*:3])[*:2]].A.D.G.P.T.L.R.E.W.I.S.F.C}$PEPTIDE1,PEPTIDE1,1:R3-14:R3$$$V2.0)	–	–	EC50 ([1]; Table 6, read-out: EC50 (nM) Cell Prolif.): < 500 nM; EC50 (TPO receptor; Table 6, value in parentheses, read-out: EC50 (nM), microphysiometer results in parentheses): < 200000 nM

Now from value to compound, other results behind:

EC50 [1, 2] [nM]	EC50 (TPO receptor; [3]) [nM]	SMILES	other results
< 200000	< 200000	CC[C@H](C)[C@@H]1NC(=O)[C@H](Cc2c[nH]c3ccccc23)NC(=O)[C@H](CCC(=O)O)NC(=O)[C@H](CCCNC(=N)N)NC(=O)[C@H](CC(C)C)NC(=O)[C@H]([C@@H](C)O)NC(=O)[C@@H]2CCCN2C(=O)CNC(=O)[C@H](CC(=O)O)NC(=O)[C@H](C)NC(=O)[C@@H](N)CCC(=O)NCCCC[C@@H](C(N)=O)NC(=O)[C@H](Cc2ccccc2)NC(=O)[C@H](CO)NC1=O (HELM PEPTIDE1{E.A.D.G.P.T.L.R.E.W.I.S.F.K.[am]}$PEPTIDE1,PEPTIDE1,1:R3-14:R3$$$V2.0)	–
< 500	< 500	CC[C@H](C)[C@@H]1NC(=O)[C@H](Cc2c[nH]c3ccccc23)NC(=O)[C@H](CCC(=O)O)NC(=O)[C@H](CCCNC(=N)N)NC(=O)[C@H](CC(C)C)NC(=O)[C@H]([C@@H](C)O)NC(=O)[C@@H]2CCCN2C(=O)CNC(=O)[C@H](CC(=O)O)NC(=O)[C@H](C)NC(=O)CSC[C@@H](C(N)=O)NC(=O)[C@H](Cc2ccccc2)NC(=O)[C@H](CO)NC1=O (HELM PEPTIDE1{[O=C(C[*:3])[*:2]].A.D.G.P.T.L.R.E.W.I.S.F.C.[am]}$PEPTIDE1,PEPTIDE1,1:R3-14:R3$$$V2.0)	–

Source: US8227422B2, “Peptides and compounds that bind to a receptor” (Glaxosmithkline LLC, priority 1996, dated 2012)
